“Also recorded” adds a separate entry of the source.
Experiments:
Human TGR18 = Human TGR18 (Homo sapiens, UniProt Q9BXA5); settings: FIG. 6A
Experimental: (§1) In order to examine the ability of a compound to activate TGR18, CHO cells were transiently transfected with 10 μg of the GPCR and 10 μg Aequorin reporter gene in a 150 mm dish. As a negative control, the same amount of empty vector and the Aequorin reporter were cotransfected into CHO cells. After 24 hours, cells were harvested and resuspended in Aequorin buffer (Hank's buffered saline with 20 mM Hepes, pH7.6 and 0.1% BSA) containing 1 μg/ml coelenterazine f and incubated at room temperature for a further 2 hours. The Aequorin luminescence was recorded on Microlumat after injecting 100 μl of cells into 100 μl of ligand prepared in Aequorin buffer.

mouse TGR18 = mouse TGR18 (Mus musculus, UniProt Q99MT6); settings: FIG. 6A
Chain of mouse TGR18 (Q99MT6 whole entry): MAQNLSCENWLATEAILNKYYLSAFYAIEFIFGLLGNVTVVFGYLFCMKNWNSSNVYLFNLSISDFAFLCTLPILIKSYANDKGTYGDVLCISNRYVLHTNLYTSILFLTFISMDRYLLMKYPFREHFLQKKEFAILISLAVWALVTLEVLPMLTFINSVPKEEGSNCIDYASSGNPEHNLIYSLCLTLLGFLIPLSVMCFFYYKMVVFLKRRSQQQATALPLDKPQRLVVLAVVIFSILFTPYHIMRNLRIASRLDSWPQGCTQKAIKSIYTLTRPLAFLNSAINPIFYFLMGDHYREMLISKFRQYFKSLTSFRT
Experimental: as §1

rat TGR18 = rat TGR18 (Rattus norvegicus, UniProt Q6IYF9); settings: FIG. 6A
Chain of rat TGR18 (Q6IYF9 whole entry): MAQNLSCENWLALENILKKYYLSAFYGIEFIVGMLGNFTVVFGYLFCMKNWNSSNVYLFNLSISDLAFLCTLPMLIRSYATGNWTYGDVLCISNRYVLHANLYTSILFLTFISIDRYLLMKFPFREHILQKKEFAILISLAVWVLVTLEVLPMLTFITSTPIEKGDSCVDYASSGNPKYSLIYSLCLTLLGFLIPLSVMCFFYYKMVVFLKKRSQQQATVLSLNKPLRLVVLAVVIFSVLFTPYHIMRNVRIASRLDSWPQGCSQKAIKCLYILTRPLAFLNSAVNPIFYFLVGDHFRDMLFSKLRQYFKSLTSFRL
Experimental: as §1

thirty other GPCRs = settings: at 100 μM
Experimental: as §1

TGR18 [1] = molecular target: T1, TGR18 (Homo sapiens, UniProt Q9BXA5); settings: 293 cells; 6 hours
T1 sequence (Q9BXA5 with tags, fused parts or gaps limits assumed): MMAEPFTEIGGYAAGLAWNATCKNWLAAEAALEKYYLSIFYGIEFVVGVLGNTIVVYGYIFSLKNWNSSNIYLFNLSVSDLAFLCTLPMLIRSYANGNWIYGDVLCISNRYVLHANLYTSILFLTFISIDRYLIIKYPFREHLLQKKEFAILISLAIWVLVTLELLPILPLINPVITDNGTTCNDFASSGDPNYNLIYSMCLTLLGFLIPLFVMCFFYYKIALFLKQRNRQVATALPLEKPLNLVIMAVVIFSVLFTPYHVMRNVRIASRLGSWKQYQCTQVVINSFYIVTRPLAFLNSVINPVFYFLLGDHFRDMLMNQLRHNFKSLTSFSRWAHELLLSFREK
Experimental: The ability of a ligand to induce TGR18-mediated activation of a CRE-luciferase reporter was also evaluated. For this assay, 293 cells were transiently transfected with CRE-luciferase reporter, tk-renila luciferase reporter and TGR18 plasmid. Succinic acid was then added to the cell culture supernatants and incubated for a further 6 hours. The luminescence were recorded on CLIPR after cell lysis as illustrated in Dual-luciferase assay kit (Promega).

TGR18 [2] = molecular target: T1, TGR18; test: FLIPR intracellular calcium assay, 293 cells stably expressing TGR18; format: cell-based; parameters: expressed in transfected cells; transient for CRE-luciferase; settings: for activation of TGR18 in FLIPR assay: FIG. 6C
Experimental: Mobilization of intracellular calcium in response to various ligands was also evaluated using a FLIPR assay. In this assay, 293 cells stably expressing TGR18 were seeded into 384-well plates and incubated at 37° C. overnight. The growth medium was then aspirated and replaced with 50 μl loading medium (FLIPR no-wash kit, Molecular Devices) and incubated at 37° C. for 1 hour. The cells were placed in a fluorometric imaging plate reader (FLIPR), and changes in cellular fluorescence were recorded after the addition of 25 μl of various ligands diluted in FLIPR buffer (FLIPR no-wash kit, Molecular Devices). Analogs of succinic acid that activated TGR18 include succinic acid, maleic acid, oxalacetic acid, methylmalonic acid and itaconic acid (FIG. 6C).

TGR18 [3] = molecular target: T1, TGR18; test: Inositol phosphate accumulation assay, 293 cells stably expressing TGR18; format: cell-based; parameters: expressed in transfected cells; transient for CRE-luciferase; settings: 45 minutes stimulation
Experimental: The ability of various ligands to increase inositol phosphate was also assessed. For this analysis, 293 cells stably expression TGR18 were incubated in inositol-free DMEM/10% dialyzed FCS/1 μCi/ml ^3H-inositol for 16 hours. Following incubation 10 mM LiCi was added to the cells for 15 minutes. Cells were then stimulated with various ligands for 45 minutes and extracted with ice-cold 20 mM formic acid. H3-inositol phosphate was collected on Dowex ion-exchange column (formate form) and radioactivity recorded by Topcount scintillation counter.

40 other orphan GPCRs = settings: at 10 μM
TGR2 [4] = molecular target: T2, TGR2 (Homo sapiens, UniProt Q8TDS7)
T2 sequence (Q8TDS7 whole entry): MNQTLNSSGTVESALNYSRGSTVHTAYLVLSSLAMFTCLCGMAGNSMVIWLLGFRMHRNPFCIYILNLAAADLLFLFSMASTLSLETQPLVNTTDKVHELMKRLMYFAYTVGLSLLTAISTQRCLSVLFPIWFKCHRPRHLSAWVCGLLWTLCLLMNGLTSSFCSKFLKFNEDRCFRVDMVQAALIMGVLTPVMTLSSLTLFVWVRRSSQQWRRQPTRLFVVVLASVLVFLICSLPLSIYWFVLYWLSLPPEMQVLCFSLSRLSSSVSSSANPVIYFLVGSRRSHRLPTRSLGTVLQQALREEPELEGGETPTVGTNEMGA

mMrgD = mMrgD (Mus musculus, UniProt Q91ZB8)
Chain of mMrgD (Q91ZB8 whole entry): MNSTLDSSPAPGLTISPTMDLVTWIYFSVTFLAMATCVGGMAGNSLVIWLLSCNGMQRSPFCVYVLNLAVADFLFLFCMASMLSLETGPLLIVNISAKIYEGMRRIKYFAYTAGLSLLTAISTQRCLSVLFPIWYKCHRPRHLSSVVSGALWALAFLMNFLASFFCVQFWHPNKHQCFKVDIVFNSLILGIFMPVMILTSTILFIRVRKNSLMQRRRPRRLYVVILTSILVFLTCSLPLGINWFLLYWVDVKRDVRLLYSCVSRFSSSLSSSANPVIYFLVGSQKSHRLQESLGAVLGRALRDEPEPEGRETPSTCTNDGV

TGR2 [5] = molecular target: T2, TGR2; test: Aequorin assay, CHO cells transiently transfected with TGR2; format: cell-based; parameters: expressed in transfected cells; host or cells: CHO cells, transient
TGR164 [6] = molecular target: T3, TGR164 (Homo sapiens, UniProt Q96P68); test: Aequorin assay, TGR164; format: cell-based; settings: for activation of TGR164 in Aequorin assay: FIGS. 7A and 7B
T3 construct: expressed in transfected cells; also 'various cell lines'

TGR164 [7] = molecular target: T3, TGR164; test: Inositol phosphate accumulation assay, TGR164; format: cell-based
GPR43 = molecular target: T4, GPR43 (Homo sapiens, UniProt O15552); test: GPR43 activation by fatty acids (FIG. 2); format: cell-based; settings: for concentration at which GPR43 is activated: FIG. 2
T4 sequence (O15552 1-330): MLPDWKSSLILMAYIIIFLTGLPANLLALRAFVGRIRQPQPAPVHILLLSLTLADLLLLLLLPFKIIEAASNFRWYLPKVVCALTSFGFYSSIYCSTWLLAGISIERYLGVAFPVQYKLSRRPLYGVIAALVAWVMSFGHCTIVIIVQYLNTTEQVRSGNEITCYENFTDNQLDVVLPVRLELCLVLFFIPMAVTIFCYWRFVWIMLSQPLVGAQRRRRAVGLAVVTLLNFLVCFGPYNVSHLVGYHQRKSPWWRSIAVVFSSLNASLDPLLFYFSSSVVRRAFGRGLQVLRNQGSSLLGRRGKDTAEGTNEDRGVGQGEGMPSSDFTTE
Excerpt: An activated or inhibited G-protein will in turn alter the properties of downstream effectors such as proteins, enzymes, and channels. The classic examples are the activation of cGMP phosphodiesterase by transducin in the visual system, adenylate cyclase by the stimulatory G-protein, phospholipase C by Gq and other cognate G proteins, and modulation of diverse channels by Gi and other G proteins. Downstream consequences such as generation of diacyl glycerol and IP3 by phospholipase C, and in turn, for calcium mobilization e.g., by IP3 (further discussed below) can also be examined. Thus, modulators can be evaluated for the ability to stimulate or inhibit ligand-mediated downstream effects. […] Candidate modulators may be assessed for the ability to inhibit inositol phosphate accumulation and/or calcium mobilization induced by the natural ligand, e.g., β-alanine (TGR2), a 2–3 carbon chain fatty acid (GPR43), a medium or long chain fatty acid (GPR40), succinic acid (TGR18), or a-ketoglutaric acid (TGR164).
A battery of fatty acids were tested for the ability to activate GPR43.

GPR77 = molecular target: T5, GPR77 (Homo sapiens, UniProt Q9P296); test: Competitive binding assay, membrane binding format, cells transiently transfected with GPR77
T5 construct: expressed in transfected cells
T5 sequence (Q9P296 whole entry): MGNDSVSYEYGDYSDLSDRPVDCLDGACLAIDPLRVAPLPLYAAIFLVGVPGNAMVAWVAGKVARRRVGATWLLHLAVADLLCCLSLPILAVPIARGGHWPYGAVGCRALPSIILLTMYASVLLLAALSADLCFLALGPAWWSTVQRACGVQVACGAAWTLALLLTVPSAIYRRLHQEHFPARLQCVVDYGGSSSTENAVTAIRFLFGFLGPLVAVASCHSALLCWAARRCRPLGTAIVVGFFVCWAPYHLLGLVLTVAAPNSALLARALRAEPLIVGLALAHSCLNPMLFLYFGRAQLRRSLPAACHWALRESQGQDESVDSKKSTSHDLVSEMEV
Excerpt: GPR77 was transiently transfected into cells.

TGR18 [8] = molecular target: T1, TGR18; test: TGR18 ligand activity, assay not specified (introduction); format: cell-based; parameters: expressed in transfected cells; transient for CRE-luciferase

`O=C(O)CCC(=O)O` [succinic acid] was tested. Which “activation of human TGR18 in Aequorin assay” value (Human TGR18) did it give?
The value was “activated”.

What about the “activation of mouse TGR18 in Aequorin assay” value (mouse TGR18) of the same compound?
Its value is “activated”.

What about the “activation of rat TGR18 in Aequorin assay” value (rat TGR18) of the same compound?
Its value is “activated”.

And the “activation of thirty other GPCRs” value (thirty other GPCRs)?
Its value is “does not activate”.

And the “TGR18-mediated activation of CRE-luciferase reporter” value (TGR18 [1])?
Its value is “induced”.

And the EC50 (TGR18 [2]; 293 cells stably expressing TGR18, FIG. 6B, read-out: EC50 of TGR18 activation in FLIPR assay)?
The EC50 was roughly 27 µM.

And the “activation of TGR18 in FLIPR assay” value (TGR18 [2])?
Its value is “activated”.

What about the “increase of inositol phosphate levels, TGR18” value (TGR18 [3]) of the same compound?
The value was “increased inositol phosphate levels”.

What does the source list for `NCCC(=O)O` [β-alanine]?
activation of 40 other orphan GPCRs (40 other orphan GPCRs): did not activate; activation of TGR2 in inositol phosphate accumulation assay (TGR2 [4]): activated; activation of mouse ortholog mMrgD in Aequorin assay (mMrgD): specifically activated; EC50 (TGR2 [5]; CHO cells transiently transfected with TGR2, FIG. 1): 9.1 µM; activation of TGR2 (increase in intracellular calcium), library screen (TGR2 [5]; at 10 μM): positive hit

With `O=C(O)CC(=O)C(=O)O` [oxalacetic acid] as the compound, how does the “activation of TGR18 in FLIPR assay” value (TGR18 [2]) read?
Its value is “activated”.

What does the source list for `C=C(CC(=O)O)C(=O)O` [itaconic acid]?
activation of TGR164 in Aequorin assay (TGR164 [6]): activated; inositol phosphate accumulation, TGR164 (TGR164 [7]): observed; activation of TGR18 in FLIPR assay (TGR18 [2]): activated

Which results are given for `O=C(O)CCC(=O)C(=O)O` [α-ketoglutaric acid]?
activation of TGR164 in Aequorin assay (TGR164 [6]): TGR164 ligand; activation of TGR164 in Aequorin assays in multiple cell lines (TGR164 [6]; multiple cell lines): activates; inositol phosphate accumulation, TGR164 (TGR164 [7]): observed

How did the “activation of TGR18 in FLIPR assay” value (TGR18 [2]) turn out when `CC(C(=O)O)C(=O)O` [methylmalonic acid] was run?
The value was “activated”.

For `CCCCC(=O)O` [pentanoate], which “activation of GPR43” value (GPR43) is on record?
The value was “do not activate”.

For `CCCCCCCC(=O)O` [octanoate], which “activation of GPR43” value (GPR43) is on record?
The value was “do not activate”.

How did the “activation of GPR43” value (GPR43) turn out when `CCCCCCC(=O)O` [heptanoeate] was run?
The value was “do not activate”.

With “ASP: Acylation stimulating protein, identical to the desarginated form of complement C3a, i.e., C3adesArg” as the compound, how does the “binding to GPR77, competition with C5a and C3a” value (GPR77) read?
Its value is “shown to bind to GPR77; also recorded: competed with C5a and C3a”.

With `CC(=O)O` [acetate] as the compound, how does the “concentration at which GPR43 is activated” value (GPR43) read?
Its value is “about 140 μM”.

Which “activation of TGR18 in FLIPR assay” value (TGR18 [2]) does the source give for `O=C(O)/C=C\C(=O)O` [maleic acid] here?
The value was “activated”.

`CCC(=O)O` [propionate] was tested. Which “concentration at which GPR43 is activated” value (GPR43) did it give?
The value was “about 140 μM”.

Which “increase of inositol phosphate levels, TGR18” value (TGR18 [3]) does the source give for `O=C(O)/C=C/C(=O)O` [fumaric acid] here?
The value was “did not”.

For `O=C1CCC(=O)O1` [succinic anhydride], which “ligand for / activation of TGR18” value (TGR18 [8]) is on record?
Its value is “ligands for TGR18”.
